Reference: patent US6486157B1, “Use of insecticides in pest control” (priority 1998, dated 2002)

Tests used:
Format in all cases: in vivo
[1] = tested on: Anthonomus grandis; assay: Spray test on young transgenic cotton plants, action against Anthonomus grandis adults; conditions: for control of the tested insects in the non-transgenic plant (% action): non-transgenic cotton, spray mixture of active ingredient and conventional CryIIIA-toxin, each 100, 50, 10, 5, 1 ppm, 3 to 10 days; for control of the tested insects in the transgenic plant (% action): spray 100, 50, 10, 5, 1 ppm, evaluation 3 to 10 days, compared with treated non-transgenic cotton
From the text: (§1) Young transgenic cotton plants which express the δ-endotoxin CryIIIA are sprayed with an aqueous emulsion spray mixture comprising 100, 50, 10, 5, 1 ppm of profenofos respectively. After the spray coating has dried on, the cotton plants are populated with 10 adult Anthonomus grandis, 10 Spodoptera littora larvae or 10 Heliothis virescens larvae respectively and introduced into a plastic container. Evaluation takes place 3 to 10 days later. The percentage reduction in population, or the percentage reduction in feeding damage (% action), is determined by comparing the number of dead beetles and the feeding damage on the transgenic cotton plants with that of non-transgenic cotton plants which have been treated with an emulsion spray mixture comprising lufenuron and conventional CryIIIA-toxin at a concentration of in each case 100, 50, 10, 5, 1 ppm respectively.
as §1, with “pymetrozine” for “lufenuron”
as §1, with “express tho” for “express the”, “δ-endotoxin CryIa (c)” for “δ-endotoxin CryIIIA”, “of fenoxycarb” for “of profenofos”, “comprising fenoxycarb” for “comprising lufenuron”, “and con-ventional” for “and conventional”
as §1, with “δ-endotoxin CryIa(c)” for “δ-endotoxin CryIIIA”, “of fenoxycarb” for “of profenofos”, “comprising fenoxycarb” for “comprising lufenuron”
(§2) Young transgenic cotton plants which express the δ-endotoxin CryIa(c) are sprayed with an aqueous emulsion spray mixture comprising 100, 50, 10, 5, 1 ppm of pymetrozine respectively. After the spray coating has dried on, the cotton plants are populated with 10 adult Anthonomus grandis, 10 Spodoptera littora larvae or 10 Heliothis virescens larvae respectively and introduced into a plastic container. Evaluation takes place 3 to 10 days later. […]

[2] = tested on: Spodoptera littoralis; assay: Spray test on young transgenic cotton plants, action against Spodoptera littoralis larvae; conditions: for control of the tested insects in the non-transgenic plant (% action): non-transgenic cotton, spray mixture of active ingredient and conventional CryIIIA-toxin, each 100, 50, 10, 5, 1 ppm, 3 to 10 days; for control of the tested insects in the transgenic plant (% action): spray 100, 50, 10, 5, 1 ppm, evaluation 3 to 10 days, compared with treated non-transgenic cotton
From the text: as §1
as §1, with “pymetrozine” for “lufenuron”
as §1, with “express tho” for “express the”, “δ-endotoxin CryIa (c)” for “δ-endotoxin CryIIIA”, “of fenoxycarb” for “of profenofos”, “comprising fenoxycarb” for “comprising lufenuron”, “and con-ventional” for “and conventional”
as §1, with “δ-endotoxin CryIa(c)” for “δ-endotoxin CryIIIA”, “of fenoxycarb” for “of profenofos”, “comprising fenoxycarb” for “comprising lufenuron”
as §2

[3] = tested on: Heliothis virescens; assay: Spray test on young transgenic cotton plants, action against Heliothis virescens larvae; conditions: for control of the tested insects in the non-transgenic plant (% action): non-transgenic cotton, spray mixture of active ingredient and conventional CryIIIA-toxin, each 100, 50, 10, 5, 1 ppm, 3 to 10 days; for control of the tested insects in the transgenic plant (% action): spray 100, 50, 10, 5, 1 ppm, evaluation 3 to 10 days, compared with treated non-transgenic cotton
From the text: as §1
as §1, with “pymetrozine” for “lufenuron”
as §1, with “express tho” for “express the”, “δ-endotoxin CryIa (c)” for “δ-endotoxin CryIIIA”, “of fenoxycarb” for “of profenofos”, “comprising fenoxycarb” for “comprising lufenuron”, “and con-ventional” for “and conventional”
as §1, with “δ-endotoxin CryIa(c)” for “δ-endotoxin CryIIIA”, “of fenoxycarb” for “of profenofos”, “comprising fenoxycarb” for “comprising lufenuron”
as §2

[4] = tested on: Ostrinia nubilalis; assay: Plot test on maize cv. KnockOut vs conventional maize, action against Ostrinia nubilalis; conditions: natural infestation; for control on the plants of plot (a) (% action): plot (a) maize cv. KnockOut, spray 200, 100, 50, 10, 5, 1 ppm, evaluation 6 days later; for control level, plot (b): plot (b) conventional maize, spray 200, 100, 50, 10, 5, 1 ppm plus same ppm of the endotoxin expressed by KnockOut, 6 days
Procedure: (§3) A plot (a) planted with maize cv. KnockOut® and an adjacent plot (b) of the same size which is planted with conventional maize, both showing natural infestation with Ostrinia nubilalis, Spodoptera sp or Heliothis, are sprayed with an aqueous emulsion spray mixture comprising 200, 100, 50, 10, 5, 1 ppm of fenoxycarb . Immediately afterwards, plot (b) is treated with an emulsion spray mixture comprising 200, 100, 50, 10, 5, 1 ppm of the endotoxin expressed by KnockOut®. Evaluation takes place 6 days later. The percentage reduction in population (% action) is determined by comparing the number of dead pests on the plants of plot (a) with that on the plants of plot (b).
as §3, with “pymetrozine.” for “fenoxycarb .”
(§4) A plot (a) planted with maize cv. KnockOut® and an adjacent plot (b) of the same size which is planted with conventional maize, both showing natural infestation with Ostrinia nubilalis. Spodoptera sp or Heliothis, are sprayed with an aqueous emulsion spray mixture comprising 200, 100, 50, 10, 5, 1ppm of lufenuron. Immediately afterwards, plot (b) is treated with an emulsion spray mixture comprising 200, 100, 50, 10, 5, 1 ppm of the endotoxin expressed by KnockOut®. Evaluation takes place 6 days later. The percentage reduction in population (% action) is determined by comparing the number of dead pests on the plants of plot (a) with that on the plants of plot (b).

[5] = tested on: Spodoptera spp.; assay: Plot test on maize cv. KnockOut vs conventional maize, action against Spodoptera spp.; conditions: natural infestation; for control on the plants of plot (a) (% action): plot (a) maize cv. KnockOut, spray 200, 100, 50, 10, 5, 1 ppm, evaluation 6 days later; for control level, plot (b): plot (b) conventional maize, spray 200, 100, 50, 10, 5, 1 ppm plus same ppm of the endotoxin expressed by KnockOut, 6 days
Procedure: as §3
as §3, with “pymetrozine.” for “fenoxycarb .”
as §4

[6] = tested on: Heliothis spp.; assay: Plot test on maize cv. KnockOut vs conventional maize, action against Heliothis spp.; conditions: natural infestation; for control on the plants of plot (a) (% action): plot (a) maize cv. KnockOut, spray 200, 100, 50, 10, 5, 1 ppm, evaluation 6 days later; for control level, plot (b): plot (b) conventional maize, spray 200, 100, 50, 10, 5, 1 ppm plus same ppm of the endotoxin expressed by KnockOut, 6 days
Procedure: as §3
as §3, with “pymetrozine.” for “fenoxycarb .”
as §4

[7] = tested on: Frankliniella occidentalis; assay: Transgenic vs conventional cotton seedlings, action against Frankliniella occidentalis; conditions: 20° C.; for control on the plants of plot (a) (% action): spray 400 ppm, evaluated after 3 and 6 days; for control level, plot (b): plot (b) conventional cotton seedlings, 3 and 6 days
Procedure: (§5) Cotton seedlings expressing the δ-endotoxin Crylila on a plot (a) and conventional cotton seedlings on a plot (b) are infected with Frankliniella occidentalis and subsequently sprayed with a spray mixture comprising 400 ppm lufenuron. Immediately afterwards, plot (b) is treated with an emulsion spray mixture comprising 400 ppm of the S-endotoxin CrylIla. The seedlings of plot (a) and (b) are then incubated at 20° C. The test is evaluated after 3 and 6 days.
(§6) The percentage reduction in population (% action) is determined by comparing the number of dead pests on the plants of plot (a) with that on the plants of plot (b).
as §5, with “CryIa(c)” for “Crylila”, “δ-endotoxin CryIa(c).” for “S-endotoxin CrylIla.”

[8] = tested on: Aphis gossypii; assay: Transgenic vs conventional cotton seedlings, action against Aphis gossypii; conditions: 20° C.; for control on the plants of plot (a) (% action): spray 400 ppm, evaluated after 3 and 6 days; for control level, plot (b): plot (b) conventional cotton seedlings, 3 and 6 days
Procedure: (§7) Cotton seedlings on a plot (a) expressing the δ-endotoxin CryllIa on a plot (a) and conven-tional cotton seedlings on a plot (b) are infected with Aphis gossypi and subsequently sprayed with a spray mixture comprising 400 ppm pymetrozine. immediately afterwards, plot (b) is treated with an emulsion spray mixture comprising 400 ppm of the δ-endotoxin Crylila. The seedlings of plot (a) and (b) are then incubated at 20° C. The test is evaluated after 3 and 6 days.
as §6
as §7, with “seedlings” for “seedlings on a plot (a)”, “CryIA(c)” for “CryllIa”, “conventional” for “conven-tional”, “gossypii” for “gossypi”, “Immediately” for “immediately”, “[…].” for “Crylila.”

[9] = transgenic cotton expressing δ-endotoxin CryIa(c)
[10] = plot (a) cotton seedlings expressing δ-endotoxin CryIa(c)
[11] = transgenic cotton expressing δ-endotoxin CryIIIA

Compound: CCOC(=O)NCCOc1ccc(Oc2ccccc2)cc1 [fenoxycarb, Ethyl 2-(4-Phenoxyphenoxy)ethylcarbamat]
- control of the tested insects in the non-transgenic plant (% action) [1]: insufficient
- control of the tested insects in the transgenic plant (% action) [1, 9]: superior
- control of the tested insects in the non-transgenic plant (% action) [2]: insufficient
- control of the tested insects in the transgenic plant (% action) [2, 9]: superior
- control of the tested insects in the non-transgenic plant (% action) [3]: insufficient
- control of the tested insects in the transgenic plant (% action) [3, 9]: superior
- control on the plants of plot (a) (% action) [4]: Improved control
- control level, plot (b) [4]: ≤ 60%
- control on the plants of plot (a) (% action) [5]: Improved control
- control level, plot (b) [5]: ≤ 60%
- control on the plants of plot (a) (% action) [6]: Improved control
- control level, plot (b) [6]: ≤ 60%

Compound: O=C(NC(=O)c1c(F)cccc1F)Nc1cc(Cl)c(OC(F)(F)C(F)C(F)(F)F)cc1Cl (centres unmarked) [lufenuron]
- control of the tested insects in the non-transgenic plant (% action) [1]: insufficient
- control of the tested insects in the transgenic plant (% action) [1, 9]: superior
- control of the tested insects in the non-transgenic plant (% action) [2]: insufficient
- control of the tested insects in the transgenic plant (% action) [2, 9]: superior
- control of the tested insects in the non-transgenic plant (% action) [3]: insufficient
- control of the tested insects in the transgenic plant (% action) [3, 9]: superior
- control on the plants of plot (a) (% action) [4]: Improved control
- control level, plot (b) [4]: ≤ 60%
- control on the plants of plot (a) (% action) [5]: Improved control
- control level, plot (b) [5]: ≤ 60%
- control on the plants of plot (a) (% action) [6]: Improved control
- control level, plot (b) [6]: ≤ 60%
- control on the plants of plot (a) (% action) [7, 10]: Improved control
- control on the plants of plot (a) (% action) ([7]; plot (a) cotton seedlings expressing δ-endotoxin Crylila): Improved control
- control level, plot (b) ([7]; spray 400 ppm plus 400 ppm of endotoxin CrylIla): ≤ 60%
- control level, plot (b) ([7]; spray 400 ppm plus 400 ppm of δ-endotoxin CryIa(c)): ≤ 60%

Compound: CC1=NNC(=O)N(N=Cc2cccnc2)C1 [pymetrozine, 2,3,4,5-Tetrahydro-3-oxo-4-[(pyridin-3-yl)-methylenamino]-6-methyl-1,2,4-triazin]
- control of the tested insects in the non-transgenic plant (% action) [1]: insufficient
- control of the tested insects in the transgenic plant (% action) [1, 9]: superior
- control of the tested insects in the non-transgenic plant (% action) [2]: insufficient
- control of the tested insects in the transgenic plant (% action) [2, 9]: superior
- control of the tested insects in the non-transgenic plant (% action) [3]: insufficient
- control of the tested insects in the transgenic plant (% action) [3, 9]: superior
- control on the plants of plot (a) (% action) [4]: Improved control
- control level, plot (b) [4]: ≤ 60%
- control on the plants of plot (a) (% action) [5]: Improved control
- control level, plot (b) [5]: ≤ 60%
- control on the plants of plot (a) (% action) [6]: Improved control
- control level, plot (b) [6]: ≤ 60%
- control on the plants of plot (a) (% action) [8, 10]: Improved control
- control on the plants of plot (a) (% action) ([8]; plot (a) cotton seedlings expressing δ-endotoxin CryllIa): Improved control
- control level, plot (b) ([8]; spray 400 ppm plus 400 ppm of δ-endotoxin Crylila): ≤ 60%
- control level, plot (b) ([8]; spray 400 ppm plus 400 ppm of δ-endotoxin Crylla): ≤ 60%

Compound: CCCSP(=O)(OCC)Oc1ccc(Br)cc1Cl (centres unmarked) [profenofos, O-4-Brom-2-chlorphenyl O-Ethyl S-Propyl Phosphorothioat]
- control of the tested insects in the transgenic plant (% action) [1, 11]: superior
- control of the tested insects in the transgenic plant (% action) [2, 11]: superior
- control of the tested insects in the transgenic plant (% action) [3, 11]: superior
